# Assay results as given in article PMC5761851, “Application of a phenotypic drug discovery strategy to identify biological and chemical starting points for inhibition of TSLP production in lung epithelial cells” (PLoS ONE, 2018).
# Where two headings read alike, the source gives them in different places.
# Tests used:
# [1] = tested on: human primary cell culture and co-culture systems; experiment: BioMAP Diversity PLUS phenotypic profiling; type: cell-based
# Excerpt: The concept of the BioMAP® Diversity PLUS™ Platform™ (DiscoverX) has been previously described. The platform is comprised of 12 specific combinations of human primary cell culture and co-culture systems stimulated with a range of physiological and disease relevant stimuli (S2 Table). The resulting activities define a bioactivity fingerprint that was used to search for similar patterns of biological responses across the BioMAP® reference database of >3,000 compounds, biologics, approved drugs and experimental agents. Compound 4 was tested at 0.111 μM, 0.333 μM, 1 μM and 3 μM concentrations.
# PDE5 = biological target: T1, PDE5 (Homo sapiens, UniProt O76074); experiment: BioPrint panel: PDE5; type: biochemical
# T1 construct: Eurofins Pharma Discovery Services (contract assay service)
# Protocol: General selectivity profiling was performed at Eurofins Pharma Discovery Services using the BioPrint® panel and reference database. The panel included 104 binding assays (non-peptide, peptide and nuclear receptors, ion channels and amine transporters) and 41 cell based and enzyme assays (including 10 kinases, 9 proteases and 5 phosphodiesterases) (S4 Table). More than 70% were human targets. Compound 4 was tested at a concentration of 1 μM in duplicate (10 μM for P-gp and CYP enzymes). The resulting bioactivity fingerprint was compared with a database of >2,500 BioPrint marketed drugs and reference compounds. IC50 values for selected activities were further characterized at 8 concentrations in duplicate.
# AT1 = biological target: T2, AT1 (Homo sapiens, UniProt P30556); experiment: BioPrint panel: AT1 (h) (antagonist); type: binding; settings: 1 micromolar, read-out: percentage of inhibition of activity
# T2 construct: purchased Eurofins Pharma Discovery Services (KinaseProfiler; Cerep BioPrint panel)
# Excerpt: (§1) Supplement pone.0189247.s004.xlsx, sheet "Bioprint Selectivity Panel" | column: %
# B2 = biological target: T3, B2 (Homo sapiens, UniProt P30411); experiment: BioPrint panel: B2 (h) (agonist); type: binding; settings: 1 micromolar, read-out: percentage of inhibition of activity
# T3 construct: purchased Eurofins Pharma Discovery Services (KinaseProfiler; Cerep BioPrint panel)
# Excerpt: as §1
# CCK1 (CCKA) = biological target: T4, CCK1 (CCKA) (Homo sapiens, UniProt P32238); experiment: BioPrint panel: CCK1 (CCKA) (h) (agonist); type: binding; settings: 1 micromolar, read-out: percentage of inhibition of activity
# T4 construct: purchased Eurofins Pharma Discovery Services (KinaseProfiler; Cerep BioPrint panel)
# Excerpt: as §1
# D1 = biological target: T5, D1 (Homo sapiens, UniProt P21728); experiment: BioPrint panel: D1 (h) (antagonist); type: binding; settings: 1 micromolar, read-out: percentage of inhibition of activity
# T5 construct: purchased Eurofins Pharma Discovery Services (KinaseProfiler; Cerep BioPrint panel)
# Excerpt: as §1
# D3 = biological target: T6, D3 (Homo sapiens, UniProt P35462); experiment: BioPrint panel: D3 (h) (antagonist); type: binding; settings: 1 micromolar, read-out: percentage of inhibition of activity
# T6 construct: purchased Eurofins Pharma Discovery Services (KinaseProfiler; Cerep BioPrint panel)
# Excerpt: as §1
# ETB = biological target: T7, ETB (Homo sapiens, UniProt P24530); experiment: BioPrint panel: ETB (h) (agonist); type: binding; settings: 1 micromolar, read-out: percentage of inhibition of activity
# T7 construct: purchased Eurofins Pharma Discovery Services (KinaseProfiler; Cerep BioPrint panel)
# Excerpt: as §1
# GABAB(1b) = biological target: T8, GABAB(1b) (Homo sapiens, UniProt Q9UBS5); experiment: BioPrint panel: GABAB(1b) (h) (antagonist); type: binding; settings: 1 micromolar, read-out: percentage of inhibition of activity
# T8 construct: purchased Eurofins Pharma Discovery Services (KinaseProfiler; Cerep BioPrint panel)
# Excerpt: as §1
# AMPA = experiment: BioPrint panel: AMPA (agonist); type: binding; settings: 1 micromolar
# Excerpt: as §1
# TNF-alpha = experiment: BioPrint panel: TNF-alpha (h) (agonist); type: binding, human; settings: 1 micromolar
# Excerpt: as §1
# CCR2 = biological target: T9, CCR2 (Homo sapiens, UniProt P41597); experiment: BioPrint panel: CCR2 (h) (agonist); type: binding; settings: 1 micromolar, read-out: percentage of inhibition of activity
# T9 construct: purchased Eurofins Pharma Discovery Services (KinaseProfiler; Cerep BioPrint panel)
# Excerpt: as §1
# H1 = biological target: T10, H1 (Homo sapiens, UniProt P35367); experiment: BioPrint panel: H1 (h) (antagonist); type: binding; settings: 1 micromolar, read-out: percentage of inhibition of activity
# T10 construct: purchased Eurofins Pharma Discovery Services (KinaseProfiler; Cerep BioPrint panel)
# Excerpt: as §1
# H4 = biological target: T11, H4 (Homo sapiens, UniProt Q9H3N8); experiment: BioPrint panel: H4 (h) (agonist); type: binding; settings: 1 micromolar, read-out: percentage of inhibition of activity
# T11 construct: purchased Eurofins Pharma Discovery Services (KinaseProfiler; Cerep BioPrint panel)
# Excerpt: as §1
# MCH1 = biological target: T12, MCH1 (Homo sapiens, UniProt Q99705); experiment: BioPrint panel: MCH1 (h) (agonist); type: binding; settings: 1 micromolar, read-out: percentage of inhibition of activity
# T12 construct: purchased Eurofins Pharma Discovery Services (KinaseProfiler; Cerep BioPrint panel)
# Excerpt: as §1
# MT1 (ML1A) = biological target: T13, MT1 (ML1A) (Homo sapiens, UniProt P48039); experiment: BioPrint panel: MT1 (ML1A) (h) (agonist); type: binding; settings: 1 micromolar, read-out: percentage of inhibition of activity
# T13 construct: purchased Eurofins Pharma Discovery Services (KinaseProfiler; Cerep BioPrint panel)
# Excerpt: as §1
# MAO-A = biological target: T14, MAO-A (Rattus norvegicus, UniProt P21396); experiment: BioPrint panel: MAO-A (antagonist); type: binding; settings: 1 micromolar, read-out: percentage of inhibition of activity
# T14 construct: purchased Eurofins Pharma Discovery Services (KinaseProfiler; Cerep BioPrint panel)
# Excerpt: as §1
# mu (MOP) = biological target: T15, mu (MOP) (Homo sapiens, UniProt P35372); experiment: BioPrint panel: mu (MOP) (h) (agonist); type: binding; settings: 1 micromolar, read-out: percentage of inhibition of activity
# T15 construct: purchased Eurofins Pharma Discovery Services (KinaseProfiler; Cerep BioPrint panel)
# Excerpt: as §1
# NOP (ORL1) = biological target: T16, NOP (ORL1) (Homo sapiens, UniProt P41146); experiment: BioPrint panel: NOP (ORL1) (h) (agonist); type: binding; settings: 1 micromolar, read-out: percentage of inhibition of activity
# T16 construct: purchased Eurofins Pharma Discovery Services (KinaseProfiler; Cerep BioPrint panel)
# Excerpt: as §1
# sst4 = biological target: T17, sst4 (Homo sapiens, UniProt P31391); experiment: BioPrint panel: sst4 (h) (agonist); type: binding; settings: 1 micromolar, read-out: percentage of inhibition of activity
# T17 construct: purchased Eurofins Pharma Discovery Services (KinaseProfiler; Cerep BioPrint panel)
# Excerpt: as §1
# VPAC1 (VIP1) = biological target: T18, VPAC1 (VIP1) (Homo sapiens, UniProt P32241); experiment: BioPrint panel: VPAC1 (VIP1) (h) (agonist); type: binding; settings: 1 micromolar, read-out: percentage of inhibition of activity
# T18 construct: purchased Eurofins Pharma Discovery Services (KinaseProfiler; Cerep BioPrint panel)
# Excerpt: as §1
# [2] = tested on: Ca2+ channel (L, diltiazem site); experiment: BioPrint panel: Ca2+ channel (L, diltiazem site)(antagonist); type: binding; settings: 1 micromolar
# Excerpt: as §1
# Cl- channel (GABA-gated) = experiment: BioPrint panel: Cl- channel (GABA-gated) (antagonist); type: binding; settings: 1 micromolar
# Excerpt: as §1
# [3] = biological target: T19, norepinephrine transporter (Homo sapiens, UniProt P23975); experiment: BioPrint panel: norepinephrine transporter (h) (antagonist); type: binding; settings: 1 micromolar, read-out: percentage of inhibition of activity
# T19 construct: purchased Eurofins Pharma Discovery Services (KinaseProfiler; Cerep BioPrint panel)
# Excerpt: as §1
# [4] = biological target: T20, choline transporter (CHT1) (Homo sapiens, UniProt Q9GZV3); experiment: BioPrint panel: choline transporter (CHT1) (h) (antagonist); type: binding; settings: 1 micromolar, read-out: percentage of inhibition of activity
# T20 construct: purchased Eurofins Pharma Discovery Services (KinaseProfiler; Cerep BioPrint panel)
# Excerpt: as §1
# inducible NOS = biological target: T21, inducible NOS (Mus musculus, UniProt P29477); experiment: BioPrint panel: inducible NOS; type: biochemical; settings: 1 micromolar, read-out: percentage of inhibition of activity
# T21 construct: purchased Eurofins Pharma Discovery Services (KinaseProfiler; Cerep BioPrint panel)
# Excerpt: as §1
# ACE-2 = biological target: T22, ACE-2 (Homo sapiens, UniProt Q9BYF1); experiment: BioPrint panel: ACE-2 (h); type: biochemical; settings: 1 micromolar
# T22 construct: purchased Eurofins Pharma Discovery Services (KinaseProfiler; Cerep BioPrint panel)
# Excerpt: as §1
# BACE-1 (beta -secretase) = biological target: T23, BACE-1 (beta -secretase) (Homo sapiens, UniProt P56817); experiment: BioPrint panel: BACE-1 (h) (beta -secretase); type: biochemical; settings: 1 micromolar, read-out: percentage of inhibition of activity
# T23 construct: purchased Eurofins Pharma Discovery Services (KinaseProfiler; Cerep BioPrint panel)
# Excerpt: as §1
# caspase-3 = biological target: T24, caspase-3 (Homo sapiens, UniProt P42574); experiment: BioPrint panel: caspase-3 (h); type: biochemical; settings: 1 micromolar, read-out: percentage of inhibition of activity
# T24 construct: purchased Eurofins Pharma Discovery Services (KinaseProfiler; Cerep BioPrint panel)
# Excerpt: as §1
# FLT-1 kinase (VEGFR1) = biological target: T25, FLT-1 kinase (VEGFR1) (Homo sapiens, UniProt P17948); experiment: BioPrint panel: FLT-1 kinase (h) (VEGFR1); type: biochemical; settings: 1 micromolar, read-out: percentage of inhibition of activity
# T25 construct: purchased Eurofins Pharma Discovery Services (KinaseProfiler; Cerep BioPrint panel)
# Excerpt: as §1
# [5] = biological target: T26, xanthine oxidase/ superoxide O2- scavenging (Bos taurus, UniProt P80457); experiment: BioPrint panel: xanthine oxidase/ superoxide O2- scavenging; type: biochemical; settings: 1 micromolar, read-out: percentage of inhibition of activity
# T26 construct: purchased Eurofins Pharma Discovery Services (KinaseProfiler; Cerep BioPrint panel)
# Excerpt: as §1
# Guanylyl cylcase = experiment: BioPrint panel: Guanylyl cylcase (activator); type: biochemical; settings: 1 micromolar
# Excerpt: as §1
# P-gp = biological target: T27, P-gp (Homo sapiens, UniProt P08183); experiment: BioPrint panel: P-gp (MDR1-MDCKII, calcein AM substrate); type: in vitro ADME; settings: 10 micromolar
# T27 construct: purchased Eurofins Pharma Discovery Services (KinaseProfiler; Cerep BioPrint panel)
# Excerpt: as §1
# T3 sequence (P30411 whole entry): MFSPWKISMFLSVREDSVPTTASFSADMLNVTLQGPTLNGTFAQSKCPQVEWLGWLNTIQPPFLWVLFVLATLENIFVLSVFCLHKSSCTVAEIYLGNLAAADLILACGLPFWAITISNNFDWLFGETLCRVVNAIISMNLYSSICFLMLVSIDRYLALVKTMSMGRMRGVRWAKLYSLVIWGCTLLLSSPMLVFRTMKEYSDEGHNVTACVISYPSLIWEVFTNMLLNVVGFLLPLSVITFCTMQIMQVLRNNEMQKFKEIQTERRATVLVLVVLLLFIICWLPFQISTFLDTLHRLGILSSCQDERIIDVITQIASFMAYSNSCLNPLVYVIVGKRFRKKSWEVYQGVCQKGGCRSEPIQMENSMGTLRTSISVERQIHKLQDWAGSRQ
# T23 sequence (P56817 46-501): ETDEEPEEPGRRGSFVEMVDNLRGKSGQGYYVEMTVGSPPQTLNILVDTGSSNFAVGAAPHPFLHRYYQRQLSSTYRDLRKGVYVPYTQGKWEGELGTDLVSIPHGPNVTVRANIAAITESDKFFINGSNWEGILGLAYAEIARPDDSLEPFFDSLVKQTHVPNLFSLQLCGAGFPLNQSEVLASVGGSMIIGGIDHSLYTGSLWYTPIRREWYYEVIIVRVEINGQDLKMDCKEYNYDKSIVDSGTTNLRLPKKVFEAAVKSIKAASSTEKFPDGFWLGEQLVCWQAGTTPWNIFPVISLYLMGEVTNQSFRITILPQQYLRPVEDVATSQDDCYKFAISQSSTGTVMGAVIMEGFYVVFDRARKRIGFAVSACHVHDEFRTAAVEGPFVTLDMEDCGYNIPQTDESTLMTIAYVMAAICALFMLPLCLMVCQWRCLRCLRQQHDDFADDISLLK
# T15 sequence (P35372 whole entry): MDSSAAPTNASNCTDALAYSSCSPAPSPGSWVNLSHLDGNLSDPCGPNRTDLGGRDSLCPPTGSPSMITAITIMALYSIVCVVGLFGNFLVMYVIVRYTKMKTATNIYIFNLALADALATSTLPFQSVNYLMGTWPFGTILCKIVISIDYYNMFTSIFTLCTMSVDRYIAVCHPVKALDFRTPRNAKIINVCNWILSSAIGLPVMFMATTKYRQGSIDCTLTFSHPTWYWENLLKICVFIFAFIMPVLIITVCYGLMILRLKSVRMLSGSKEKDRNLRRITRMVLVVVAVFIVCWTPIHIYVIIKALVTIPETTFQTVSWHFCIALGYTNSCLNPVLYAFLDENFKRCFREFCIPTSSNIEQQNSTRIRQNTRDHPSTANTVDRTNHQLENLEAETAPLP
# T12 sequence (Q99705 whole entry): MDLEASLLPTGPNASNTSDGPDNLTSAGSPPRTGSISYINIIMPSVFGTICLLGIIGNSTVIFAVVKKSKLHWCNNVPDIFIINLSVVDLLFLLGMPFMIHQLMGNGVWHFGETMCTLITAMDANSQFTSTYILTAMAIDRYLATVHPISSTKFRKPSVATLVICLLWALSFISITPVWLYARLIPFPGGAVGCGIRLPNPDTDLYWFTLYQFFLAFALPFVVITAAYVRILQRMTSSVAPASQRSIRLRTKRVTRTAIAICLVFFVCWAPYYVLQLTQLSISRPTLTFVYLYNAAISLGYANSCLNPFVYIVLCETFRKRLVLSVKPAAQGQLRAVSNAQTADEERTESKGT
# T2 sequence (P30556 whole entry): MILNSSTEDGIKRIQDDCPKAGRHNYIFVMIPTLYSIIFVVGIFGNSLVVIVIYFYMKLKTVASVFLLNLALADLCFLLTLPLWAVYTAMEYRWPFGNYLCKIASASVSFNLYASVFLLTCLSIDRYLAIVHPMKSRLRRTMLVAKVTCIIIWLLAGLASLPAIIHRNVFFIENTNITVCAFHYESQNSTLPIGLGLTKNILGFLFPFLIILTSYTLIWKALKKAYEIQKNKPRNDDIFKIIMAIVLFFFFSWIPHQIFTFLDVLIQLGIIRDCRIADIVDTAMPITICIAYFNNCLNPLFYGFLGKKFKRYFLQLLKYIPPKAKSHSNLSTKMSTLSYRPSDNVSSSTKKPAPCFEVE
# T5 sequence (P21728 whole entry): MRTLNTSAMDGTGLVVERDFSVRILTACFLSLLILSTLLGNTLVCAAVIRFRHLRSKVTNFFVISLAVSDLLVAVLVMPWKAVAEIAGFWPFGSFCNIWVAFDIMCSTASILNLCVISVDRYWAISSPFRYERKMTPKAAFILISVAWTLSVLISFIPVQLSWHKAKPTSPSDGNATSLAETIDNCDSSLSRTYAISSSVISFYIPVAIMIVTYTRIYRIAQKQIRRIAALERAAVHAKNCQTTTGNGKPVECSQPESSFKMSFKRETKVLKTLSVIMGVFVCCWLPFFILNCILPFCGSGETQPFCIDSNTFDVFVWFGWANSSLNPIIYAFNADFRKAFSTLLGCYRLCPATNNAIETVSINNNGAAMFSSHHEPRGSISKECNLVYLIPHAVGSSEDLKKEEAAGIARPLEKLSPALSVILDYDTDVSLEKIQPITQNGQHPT
# T19 sequence (P23975 whole entry): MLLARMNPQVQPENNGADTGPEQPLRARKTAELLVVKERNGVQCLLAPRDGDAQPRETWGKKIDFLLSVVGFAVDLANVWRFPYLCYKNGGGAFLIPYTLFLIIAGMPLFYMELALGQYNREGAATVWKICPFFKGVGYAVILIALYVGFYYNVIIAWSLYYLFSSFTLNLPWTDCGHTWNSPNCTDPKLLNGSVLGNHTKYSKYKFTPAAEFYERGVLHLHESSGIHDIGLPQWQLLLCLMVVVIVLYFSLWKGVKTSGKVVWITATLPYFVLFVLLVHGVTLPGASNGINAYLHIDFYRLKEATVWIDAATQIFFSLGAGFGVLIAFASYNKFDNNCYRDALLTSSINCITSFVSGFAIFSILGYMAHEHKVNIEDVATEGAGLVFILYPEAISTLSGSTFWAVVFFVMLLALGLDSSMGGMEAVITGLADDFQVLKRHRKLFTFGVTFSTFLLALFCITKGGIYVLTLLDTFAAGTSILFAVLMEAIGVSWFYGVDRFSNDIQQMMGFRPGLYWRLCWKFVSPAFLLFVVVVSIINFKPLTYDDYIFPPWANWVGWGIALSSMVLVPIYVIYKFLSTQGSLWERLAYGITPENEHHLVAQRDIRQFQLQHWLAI
# T4 sequence (P32238 whole entry): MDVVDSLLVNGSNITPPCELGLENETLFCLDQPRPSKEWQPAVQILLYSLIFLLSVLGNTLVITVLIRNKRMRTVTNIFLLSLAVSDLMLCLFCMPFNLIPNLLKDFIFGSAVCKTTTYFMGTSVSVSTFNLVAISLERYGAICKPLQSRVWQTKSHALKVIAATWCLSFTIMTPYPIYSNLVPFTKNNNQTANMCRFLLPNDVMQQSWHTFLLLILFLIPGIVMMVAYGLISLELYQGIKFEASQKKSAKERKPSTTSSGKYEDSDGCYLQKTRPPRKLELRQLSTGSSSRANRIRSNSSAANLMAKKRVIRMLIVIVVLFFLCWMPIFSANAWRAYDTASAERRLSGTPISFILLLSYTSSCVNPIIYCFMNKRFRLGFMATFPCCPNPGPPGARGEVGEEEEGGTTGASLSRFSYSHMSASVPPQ
# T27 sequence (P08183 whole entry): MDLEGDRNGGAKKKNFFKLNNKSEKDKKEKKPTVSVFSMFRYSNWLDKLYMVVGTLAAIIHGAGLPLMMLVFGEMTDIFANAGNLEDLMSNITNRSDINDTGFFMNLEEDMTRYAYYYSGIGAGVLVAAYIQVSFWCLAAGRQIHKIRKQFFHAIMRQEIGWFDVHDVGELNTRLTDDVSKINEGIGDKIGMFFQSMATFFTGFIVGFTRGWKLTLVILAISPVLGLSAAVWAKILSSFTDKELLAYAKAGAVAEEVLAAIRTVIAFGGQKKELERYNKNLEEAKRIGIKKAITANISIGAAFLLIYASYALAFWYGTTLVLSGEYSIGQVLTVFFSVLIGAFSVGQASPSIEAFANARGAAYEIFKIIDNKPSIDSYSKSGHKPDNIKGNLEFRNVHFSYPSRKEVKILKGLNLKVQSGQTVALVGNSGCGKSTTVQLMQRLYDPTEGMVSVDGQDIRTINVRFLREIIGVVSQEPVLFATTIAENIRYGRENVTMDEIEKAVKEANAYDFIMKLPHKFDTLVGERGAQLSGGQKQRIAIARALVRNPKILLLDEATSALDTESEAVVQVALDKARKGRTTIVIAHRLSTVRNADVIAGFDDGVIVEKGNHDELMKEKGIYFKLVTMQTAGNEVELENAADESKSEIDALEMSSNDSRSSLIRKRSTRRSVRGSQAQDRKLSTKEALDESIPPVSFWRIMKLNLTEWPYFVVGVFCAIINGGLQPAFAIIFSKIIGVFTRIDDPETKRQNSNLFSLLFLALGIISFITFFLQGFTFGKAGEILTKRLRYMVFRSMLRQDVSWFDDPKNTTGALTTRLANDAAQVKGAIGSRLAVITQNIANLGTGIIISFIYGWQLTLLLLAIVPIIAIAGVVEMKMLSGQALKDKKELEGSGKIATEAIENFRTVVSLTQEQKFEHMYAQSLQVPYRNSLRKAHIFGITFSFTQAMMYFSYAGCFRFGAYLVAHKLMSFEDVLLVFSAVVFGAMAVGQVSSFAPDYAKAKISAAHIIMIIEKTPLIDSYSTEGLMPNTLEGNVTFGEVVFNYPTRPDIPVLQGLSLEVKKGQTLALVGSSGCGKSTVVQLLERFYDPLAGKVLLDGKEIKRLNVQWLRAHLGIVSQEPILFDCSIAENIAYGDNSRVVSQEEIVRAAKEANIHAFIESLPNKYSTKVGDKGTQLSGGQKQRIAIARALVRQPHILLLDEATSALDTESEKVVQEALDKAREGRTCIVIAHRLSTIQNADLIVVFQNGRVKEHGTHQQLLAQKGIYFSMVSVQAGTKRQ
smiles,measurement,setting,value
Cn1cc(-c2cccc(-c3nc(C(=O)NC4C5CC6CC4CC(O)(C6)C5)c(N)nc3N)c2)cn1 (stereo not drawn) [compound 4],cytotoxicity in the 3C system,"[1]; 1 μM, 3C (HuVEC)",cytotoxicity
same,cytotoxicity in BioMAP activated cellular systems,[1]; 3 μM,"cytotoxic to B cells, fibroblasts and particularly endothelial cells"
same,IL-8 levels in lung fibroblasts (MyoF),[1]; 0.111 and 0.333 μM,increased
same,VCAM-1 expression in endothelial cells (3C),[1]; 0.111 and 0.333 μM,reduced
same,anti-proliferative activity in BioMAP systems,[1]; 0.111 and 0.333 μM,"anti-proliferative to endothelial cells, T and B cells, smooth muscle cells and fibroblasts"
same,sIL10 levels in the endothelial cell / macrophage system (/Mphg),[1]; 0.111 and 0.333 μM,decreased
same,"sIL17A, sIL17F and sIL6 levels in the B / PMBC cell system (BT)",[1]; 0.111 and 0.333 μM,decreased
same,endpoints inhibited out of 32 measured in the NHBE (BE3C) and NHBE / fibroblasts (B4FT) systems,"[1]; 0.111–0.333 μM, tPA and Eotaxin 3",2
same,inhibition at 1 µM,"PDE5; 1 μM, read-out: inhibition of PDE5",61%
same,inhibition at 1 µM,"PDE5; 1 micromolar, PDE5 (h) (non-selective), read-out: percentage of inhibition of activity",61.5%
same,IC50,"PDE5; dose response, duplicate, read-out: Inhibition of indicated activity (IC50, μM): PDE5",0.92 µM
same,inhibition at 1 µM,AT1,-6.4%
same,inhibition at 1 µM,B2,-1%
same,inhibition at 1 µM,CCK1 (CCKA),-0.1%
same,inhibition at 1 µM,D1,2.3%
same,inhibition at 1 µM,D3,-4.2%
same,inhibition at 1 µM,ETB,-6.7%
same,inhibition at 1 µM,GABAB(1b),15.4%
same,percentage of inhibition of activity,AMPA,3.7%
same,percentage of inhibition of activity,TNF-alpha,-2.1%
same,inhibition at 1 µM,CCR2,2.6%
same,inhibition at 1 µM,H1,-0.5%
same,inhibition at 1 µM,H4,-1.7%
same,inhibition at 1 µM,MCH1,34.6%
same,inhibition at 1 µM,MT1 (ML1A),4.2%
same,inhibition at 1 µM,MAO-A,6.4%
same,inhibition at 1 µM,mu (MOP),-2.6%
same,inhibition at 1 µM,NOP (ORL1),12.3%
same,inhibition at 1 µM,sst4,-11.8%
same,inhibition at 1 µM,VPAC1 (VIP1),-4.6%
same,percentage of inhibition of activity,[2],-22.4%
same,percentage of inhibition of activity,Cl- channel (GABA-gated),0.5%
same,inhibition at 1 µM,[3],26.7%
same,inhibition at 1 µM,[4],3%
same,inhibition at 1 µM,inducible NOS,-8.8%
same,percentage of inhibition of activity,ACE-2,INTER
same,inhibition at 1 µM,BACE-1 (beta -secretase),-7.3%
same,inhibition at 1 µM,caspase-3,3.9%
same,inhibition at 1 µM,FLT-1 kinase (VEGFR1),-4.8%
same,inhibition at 1 µM,[5],-15.3%
same,percentage of inhibition of activity,Guanylyl cylcase,0%
same,percentage of inhibition of activity,P-gp,82.8%
